Results reported in paper PMC6423129, “Activity and structural analysis of GRL-117C: a novel small molecule CCR5 inhibitor active against R5-tropic HIV-1s” (Scientific Reports, 2019).
Like-named read-outs stand apart in the source and are kept apart here.

Assays:
[1] = tested on: pCH040.c/2625; test: MAGI assay, T/F HIV-1 clone pCH040.c/2625; type: cell-based; conditions: Human immunodeficiency virus 1, MAGI
Excerpt: (§1) We also examined the activity of GRL-compounds against Transmitter/founder (T/F) HIV-1 viruses. T/F viruses are involved in the initial infection. It is considered that T/F viruses virtually always use CCR5 rather than CXCR4 and infect T cells but not macrophages because […] of CD4 is needed to mediate virus entry for the initial transmission[20]–[24]. […] We obtained four HIV-1 T/F infectious clones. We determined the antiviral activity of GRL-117C, GRL-10007C and GRL-10018C on these HIV-1 clones using MAGI assay.
(§2) MAGI-CCR5 cells[18] were maintained in DMEM supplemented with 10% fetal calf serum (FCS: Gemini Bio-Products, West Sacramento, CA), 200 μg/ml G418, 100 μg/ml hygromycin B, and 100 μg/ml zeomycin. The Chinese hamster ovary (CHO) cells expressing CCR5[19] were maintained in Ham’s F-12 medium (GIBCO-BRL, Rockville, MD) supplemented with 10% FCS, 50 U/ml penicillin, and 50 μg/ml streptomycin in the presence of 5 μg/ml blasticidin S hydrochloride. TZM-bl cells were obtained from the NIH AIDS Reagent Program, and were cultured in DMEM with 10% FCS. Peripheral blood mononuclear cells (PBMCs) were isolated from buffy coats of HIV-1 seronegative individuals, and were activated with 10 μg/ml phytohemagglutinin (PHA) prior to use[16]. A laboratory wild-type R5-HIV-1 strain (HIV-1Ba-L)[37] was employed for drug susceptibility assays. AD101 (experimental CCR5 inhibitor) and VVC-resistant HIV clones[7],[8] were provided by Dr. John P. Moore of Cornell University for this study. The clones were propagated with activated PBMCs, and were used for the assays. […] The following reagents (plasmids) for T/F HIV-1 viruses[22],[24] were obtained through the NIH AIDS Reagent Program, Division of AIDS, NIAID, NIH: pCH040.c/2625 (cat# 11740), pCH106.c/2633 (cat# 11743), pTHRO.c/2626 (cat# 11745), and pCH058.c/2960 (cat# 11856), from Dr. John Kappes and Dr. Christina Ochsenbauer.
(§3) Antiviral assays using PHA-PBMCs (p24 assay) were conducted as previously reported[16],[38]. In brief, PHA-PBMCs (1 × 10^6/ml) were exposed to 50 TCID50 of HIV-1Ba-L or drug-resistant HIV-1 infectious clones in the presence or absence of various concentrations of drugs; 10-fold serial dilutions were performed in 96-well microculture plates. The amount of p24 antigens produced by the cells was determined on day 7 in the culture via a commercially available ELISA kit (PerkinElmer). The p24 production level in drug-free control cell cultures was used as the reference. […] Antiviral assays using MAGI-CCR5 cells (MAGI assay) were conducted as previously reported[16],[39]. Single-round virus infection assays using TZM-bl cells infected with R5-HIV-1s (HIV-1YU2, HIV-1KP-5pc, and HIV-1KP-5mvcR)[10] were also conducted as previously described.

[2] = molecular target: T1, CCR5 (Homo sapiens, UniProt P51681); test: Inhibition of 125I-MIP-1β binding to CCR5 (CCR5+ CHO cells)
T1 construct: expressed in transfected cells; host or cells: Chinese hamster ovary (CHO) cells expressing CCR5
T1 sequence (P51681 whole entry): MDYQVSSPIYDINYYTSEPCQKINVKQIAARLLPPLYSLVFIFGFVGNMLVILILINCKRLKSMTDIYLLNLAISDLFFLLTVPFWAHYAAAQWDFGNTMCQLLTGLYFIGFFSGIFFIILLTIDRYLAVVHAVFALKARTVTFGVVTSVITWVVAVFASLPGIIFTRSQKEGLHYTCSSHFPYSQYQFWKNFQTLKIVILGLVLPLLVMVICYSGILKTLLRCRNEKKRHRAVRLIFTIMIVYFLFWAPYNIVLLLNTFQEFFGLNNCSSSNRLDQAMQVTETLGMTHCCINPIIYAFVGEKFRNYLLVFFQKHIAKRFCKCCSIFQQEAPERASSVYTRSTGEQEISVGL
Description: (§4) In order to determine whether GRL derivatives block the binding of CC-chemokines to CCR5, we conducted a CC-chemokine binding inhibition assay using ^125I-labeled CC-chemokines (^125I-RANTES, ^125I-MIP-1α, and ^125I-MIP-1β) and CCR5 expressing cells.
(§5) CCR5^+ CHO cells were incubated with (A) ^125I-MIP-1α, (B) ^125I-MIP-1β, and (C) ^125I-RANTES (200 ng/ml) in the presence or absence of varying concentrations of CCR5 inhibitors. Data are shown as means ± s.d. of three independent experiments.
(§6) The inhibition of the binding of ^125I-labeled CC-chemokines ([^125I] RANTES, [^125I] MIP-1α, or [^125I] MIP-1β) to CCR5 by various CCR5 inhibitors was measured as previously described. Calcium flux inhibition assays were also performed with CCR5 inhibitors, and were carried out with the Fluo-4 Direct^TM calcium reagent (Invitrogen); assays were conducted as previously described with minor modifications. In brief, CHO-CCR5 cells (5 × 10^5 cells) were exposed to Fluo-4 Direct^TM calcium reagent for 60 min at 37 °C in RPMI containing 5% FCS. Cells were then incubated with the test compound for 30 min at varying concentrations. Subsequently, cells were exposed to either MIP-1α, MIP-1β, or RANTES at 200 ng/ml. Relative increases in cytosolic Ca^2+ levels after chemokine exposure were determined with flow cytometry (FACSCalibur, BD Biosciences), and IC50 values of cytosolic Ca^2+ mobilization (Ca^2+ flux) were compared with the Ca^2+ flux level in drug-free control samples.

[3] = molecular target: T1, CCR5; test: Inhibition of 125I-RANTES binding to CCR5 (CCR5+ CHO cells)
Description: as §4, §5, §6

[4] = tested on: R5-HIV-1Ba-L; test: MAGI assay using MAGI/CCR5 cells and R5-HIV-1Ba-L; type: cell-based; conditions: Ba-L (MAGI)
Description: (§7) MAGI-CCR5 cells[18] were maintained in DMEM supplemented with 10% fetal calf serum (FCS: Gemini Bio-Products, West Sacramento, CA), 200 μg/ml G418, 100 μg/ml hygromycin B, and 100 μg/ml zeomycin. The Chinese hamster ovary (CHO) cells expressing CCR5[19] were maintained in Ham’s F-12 medium (GIBCO-BRL, Rockville, MD) supplemented with 10% FCS, 50 U/ml penicillin, and 50 μg/ml streptomycin in the presence of 5 μg/ml blasticidin S hydrochloride. TZM-bl cells were obtained from the NIH AIDS Reagent Program, and were cultured in DMEM with 10% FCS. Peripheral blood mononuclear cells (PBMCs) were isolated from buffy coats of HIV-1 seronegative individuals, and were activated with 10 μg/ml phytohemagglutinin (PHA) prior to use[16]. A laboratory wild-type R5-HIV-1 strain (HIV-1Ba-L)[37] was employed for drug susceptibility assays. AD101 (experimental CCR5 inhibitor) and VVC-resistant HIV clones[7],[8] were provided by Dr. John P. Moore of Cornell University for this study. The clones were propagated with activated PBMCs, and were used for the assays. A clinical HIV-1 strain, HIV-1KP-5pc, and an MVC-resistant isolate, HIV-1KP-5mvcR, were prepared and used for antiviral assays, as previously described[10],[38]. The following reagents (plasmids) for T/F HIV-1 viruses[22],[24] were obtained through the NIH AIDS Reagent Program, Division of AIDS, NIAID, NIH: pCH040.c/2625 (cat# 11740), pCH106.c/2633 (cat# 11743), pTHRO.c/2626 (cat# 11745), and pCH058.c/2960 (cat# 11856), from Dr. John Kappes and Dr. Christina Ochsenbauer.
as §3

[5] = tested on: pTHRO.c/2626; test: MAGI assay, T/F HIV-1 clone pTHRO.c/2626; type: cell-based; conditions: Human immunodeficiency virus 1, MAGI
Excerpt: as §1, §2, §3

[6] = tested on: CC1/85 cl.7; test: Anti-HIV-1 assay, drug-naive clinical strain CC1/85 cl.7; type: cell-based
Description: as §7, §3

[7] = molecular target: T1, CCR5; test: Inhibition of 125I-MIP-1α binding to CCR5 (CCR5+ CHO cells)
Description: as §4, §5, §6

[8] = tested on: CC101.19 cl.7 (AD101 resistant); test: microbe, parasite or virus in culture; type: cell-based, HIV-1; conditions: for fold increases of IC50s compared to wild type (CC1/85 cl.7): CC101.19 cl.7 (AD101 resistant) vs CC1/85 cl.7
Description: as §7, §3

[9] = tested on: D1/85.16 cl.23 (VVC resistant); test: microbe, parasite or virus in culture; type: cell-based, HIV-1; conditions: for fold increases of IC50s compared to wild type (CC1/85 cl.7): D1/85.16 cl.23 (VVC resistant) vs CC1/85 cl.7
Description: as §7, §3

[10] = tested on: pCH0.6.c/2633; test: MAGI assay, T/F HIV-1 clone pCH0.6.c/2633; type: cell-based; conditions: Human immunodeficiency virus 1, MAGI
Excerpt: as §1, §2, §3

[11] = tested on: HIV-1KP-5mvcR; test: TZM-bl single-round infection assay, MVC-resistant HIV-1KP-5mvcR; type: cell-based; conditions: in words; data not shown
Description: as §7, §3

[12] = tested on: pCH058.c/2960; test: MAGI assay, T/F HIV-1 clone pCH058.c/2960; type: cell-based; conditions: Human immunodeficiency virus 1, MAGI
Excerpt: as §1, §2, §3

[13] = tested on: R5-HIV-1BaL; test: p24 assay using PBMCs and R5-HIV-1BaL; type: cell-based; conditions: Ba-L (PBMCs), day 7
Description: as §7, §3

[14] = tested on: CC1/85 cl.6; test: Anti-HIV-1 assay, drug-naive clinical strain CC1/85 cl.6; type: cell-based; conditions: CC1/85 cl.6, drug naive R5-HIV-1 clinical strain, read-out: IC50
Description: as §7, §3

[15] = Human immunodeficiency virus 1, BAL
[16] = Human immunodeficiency virus 1, CC101.19 cl.7 (AD101 resistant)
[17] = Human immunodeficiency virus 1, D1/85.16 cl.23 (VVC resistant)
[18] = Human immunodeficiency virus 1, BAL, PBMC, 168 h

SMILES: C=CCN(C(=O)OCC1COC2OCCC12)C1CC2CCC(C1)N2CCC(C)(CN(C)S(=O)(=O)c1ccccc1)c1ccccc1 (centres unmarked) [GRL-10018C]
- IC50 [1]: 7.2 ± 1.4 nM
- EC50 [2]: 0.4 nM
- EC50 [3]: 17 nM
- IC50 [4, 15]: 2.9 nM
- IC90 [4, 15]: 27.5 nM
- IC50 [5]: 3.9 ± 1.1 nM
- IC50 ([6]; Human immunodeficiency virus 1): 4.9 nM
- IC90 ([6]; Human immunodeficiency virus 1): 34.9 nM
- EC50 [7]: 0.3 nM
- fold increases of IC50s compared to wild type (CC1/85 cl.7) [8]: (×11) fold
- IC90 ([8]; Human immunodeficiency virus 1): 553 nM
- IC50 [8, 16]: 52.5 nM
- fold increases of IC50s compared to wild type (CC1/85 cl.7) [9]: (×12.5) fold
- IC90 ([9]; Human immunodeficiency virus 1): 642 nM
- IC50 [9, 17]: 61.3 nM
- IC50 [10]: 8.8 ± 4.2 nM
- activity against MVC-resistant HIV-1 (HIV-1KP-5mvcR) [11]: failed to demonstrate activity
- IC50 [12]: 8 ± 2.3 nM
- IC50 [13, 18]: 18.7 nM
- IC90 [13, 18]: 155 nM

SMILES: CCO/N=C(\c1ccc(Br)cc1)C1CCN(C2(C)CCN(C(=O)c3c(C)cc[n+]([O-])c3C)CC2)CC1 [SCH-C]
- IC50 ([14]; Human immunodeficiency virus 1): 5.2 nM
- IC50 [4, 15]: 4.8 nM
- IC90 [4, 15]: 15.9 nM
- IC50 ([6]; Human immunodeficiency virus 1): 6.1 nM
- IC90 ([6]; Human immunodeficiency virus 1): 67.7 nM
- IC90 ([8]; Human immunodeficiency virus 1): > 1000 nM
- IC50 [8, 16]: > 1000 nM
- IC90 ([9]; Human immunodeficiency virus 1): > 1000 nM
- IC50 [9, 17]: 412 nM
- IC50 [13, 18]: 13.9 nM
- IC90 [13, 18]: 97.2 nM

SMILES: Cc1ccc(-c2ccc3c(c2)C=C(C(=O)Nc2ccc(C[N+](C)(C)C4CCOCC4)cc2)CCC3)cc1.[Cl-] [TAK-779]
- IC50 [14]: 22.7 nM
- IC50 [4]: 15.7 nM
- IC90 [4]: 88.1 nM
- IC50 ([6]; CC1/85 cl.7, drug naive R5-HIV-1 clinical strain, read-out: IC50): 28.3 nM
- IC90 ([6]; CC1/85 cl.7, drug naive R5-HIV-1 clinical strain, read-out: IC90): 101 nM
- fold increases of IC50s compared to wild type (CC1/85 cl.7) [8]: (×14) fold
- IC50 ([8]; CC101.19 cl.7 (AD101 resistant), read-out: IC50): 400 nM
- IC90 ([8]; CC101.19 cl.7 (AD101 resistant), read-out: IC90): > 1000 nM
- fold increases of IC50s compared to wild type (CC1/85 cl.7) [9]: (×5.9) fold
- IC50 ([9]; D1/85.16 cl.23 (VVC resistant), read-out: IC50): 166 nM
- IC90 ([9]; D1/85.16 cl.23 (VVC resistant), read-out: IC90): 747 nM
- IC50 [13]: 31.6 nM
- IC90 [13]: 187 nM
